# Measured values from US7910740B2, “Modulators of amyloid beta” (Hoffmann-La Roche Inc., priority 2007, dated 2011).
# pIC50: −log10 of the molar value.
# System: γ-secretase
# Experiment: Cellular γ-secretase assay (inhibition of Aβ42 secretion)
# Format: cell-based
# Settings: human neuroglioma H4 cells overexpressing human APP, incubation for 22 hrs, read-out: IC50 in vitro
# Protocol: Cellular γ-Secretase Assay
# Human neuroglioma H4 cells overexpressing human APP were plated at 30,000 cells/well/200 μl in 96-well plates in IMDM media containing 10% FCS, 0.2 mg/l Hygromycin B and incubated for 2 h at 37° C., 5% CO2 prior to adding test compounds.
# Compounds for testing were dissolved in 100% Me2SO yielding in a 10 mM stock solution.
# Typically 12 μl of these solutions were further diluted in 1000 μl of IMDM media (w/o FCS,). Sub sequential 1:1 dilutions gave a ten point dose response curve. 100 μl of each dilution was added to the cells in 96-well plates. Appropriate controls using vehicle only and reference compound were applied to this assay. The final concentration of Me2SO was 0.4%.
# After incubation for 22 hrs at 37° C., 5% CO2, 50 μl supernatant was transferred into round-bottom 96-well polypropylene plates for detection of Aβ42. 50 μl assay buffer (50 mM Tris/Cl, pH 7.4, 60 mM NaCl, 0.5% BSA, 1% TWEEN 20) was added to the wells followed by the addition of 100 μl of detection antibody (ruthenylated BAP15 0.0625 μg/ml in assay buffer). 50 μl of a premix of capture antibody (biotinylated 6E10 antibody, 1 μg/ml) and Steptavidin-coated magnetic beads (Dynal M-280, 0.125 mg/ml) were preincubated for 1 hr at room temperature before adding the assay plates. Assay plates were incubated on a shaker for 3 hrs at room temperature and finally read in the Bioveris M8 Analyser according to the manufacturer's instructions (Bioveris).
# IC50 values for inhibition of Aβ42 secretion were calculated by nonlinear regression fit analysis using XLfit 4.0 software (IDBS).
row,Structure (SMILES),pIC50
1,"COc1cc(Nc2nc(C)c(Cc3ccc(C(C)(C)C)cc3)s2)ccc1-n1cnc(C)c1 [Example 8, [5-(4-tert-Butyl-benzyl)-4-methyl-thiazol-2-yl]-[3-methoxy-4-(4-methyl-imidazol-1-yl)-phenyl]-amine]",6.24
2,"COc1cc(Nc2nc(C(C)(C)c3ccc(Cl)cc3)cs2)ccc1-n1cnc(C)c1 [Example 77, {4-[1-(4-Chloro-phenyl)-1-methyl-ethyl]-thiazol-2-yl}-[3-methoxy-4-(4-methyl-imidazol-1-yl)-phenyl]-amine]",6.85
3,"COc1ccc(Br)cc1-c1csc(Nc2ccc(-n3ccnc3)c(OC)c2)n1 [Example 22, [4-(5-Bromo-2-methoxy-phenyl)-thiazol-2-yl]-(4-imidazol-1-yl-3-methoxy-phenyl)-amine]",6.10
4,"COc1cc(Nc2nc(CC(=O)Nc3ccc(F)cc3)cs2)ccc1-n1cnc(C)c1 [Example 29, N-(4-Fluoro-phenyl)-2-{2-[3-methoxy-4-(4-methyl-imidazol-1-yl)-phenylamino]-thiazol-4-yl}-acetamide]",6.02
5,"COc1ccc(Br)cc1-c1csc(Nc2ccc(-n3cnc(C)c3)c(OC)c2)n1 [Example 16, [4-(5-Bromo-2-methoxy-phenyl)-thiazol-2-yl]-[3-methoxy-4-(4-methyl-imidazol-1-yl)-phenyl]-amine]",6.05
6,"COc1cc(Nc2nc(C)c(Cc3ccc(C#N)cc3)s2)ccc1-n1cnc(C)c1 [Example 6, 4-{2-[3-Methoxy-4-(4-methyl-imidazol-1-yl)-phenylamino]-4-methyl-thiazol-5-ylmethyl}-benzonitrile]",6.06
7,"COc1cc(Nc2nc([C@H](Cc3ccccc3)NS(=O)(=O)c3ccc(C)cc3)cs2)ccc1-n1cnc(C)c1 [Example 55, N—((S)-1-{2-[3-Methoxy-4-(4-methyl-imidazol-1-yl)-phenylamino]-thiazol-4-yl}-2-phenyl-ethyl)-4-methyl-benzenesulfonamide]",6.10
8,"COc1cc(Nc2nc(C)c(Cc3cccc(OC(F)(F)C(F)F)c3)s2)ccc1-n1cnc(C)c1 [Example 69, [3-Methoxy-4-(4-methyl-imidazol-1-yl)-phenyl]-{4-methyl-5-[3-(1,1,2,2-tetrafluoro-ethoxy)-benzyl]-thiazol-2-yl}-amine]",6.14
9,"COc1cc(Nc2nc([C@H](CC(C)C)NC(=O)OC(C)(C)C)cs2)ccc1-n1cnc(C)c1 [Example 30, ((S)-1-{2-[3-Methoxy-4-(4-methyl-imidazol-1-yl)-phenylamino]-thiazol-4-yl}-3-methyl-butyl)-carbamic acid tert-butyl ester]",6.41
10,"COc1cc(Nc2nc([C@H](CC(C)C)NC(=O)Cc3ccc(F)cc3)cs2)ccc1-n1cnc(C)c1 [Example 34, 2-(4-Fluoro-phenyl)-N—((S)-1-{2-[3-methoxy-4-(4-methyl-imidazol-1-yl)-phenylamino]-thiazol-4-yl}-3-methyl-butyl)-acetamide]",6.28
11,"COc1cc(Nc2nc([C@H](CC(C)C)NS(C)(=O)=O)cs2)ccc1-n1cnc(C)c1 [Example 41, N—((S)-1-{2-[3-Methoxy-4-(4-methyl-imidazol-1-yl)-phenylamino]-thiazol-4-yl}-3-methyl-butyl)-methane sulfonamide]",6.05
12,"COc1cc(Nc2nc(C)c(Cc3ccc(Cl)c(C(F)(F)F)c3)s2)ccc1-n1cnc(C)c1 [Example 68, [5-(4-Chloro-3-trifluoromethyl-benzyl)-4-methyl-thiazol-2-yl]-[3-methoxy-4-(4-methyl-imidazol-1-yl)-phenyl]-amine]",6.05
13,"COc1cc(Nc2nc([C@H](CC(C)C)NS(=O)(=O)c3ccc(F)cc3)cs2)ccc1-n1cnc(C)c1 [Example 39, 4-Fluoro-N—((S)-1-{2-[3-methoxy-4-(4-methyl-imidazol-1-yl)-phenylamino]-thiazol-4-yl}-3-methyl-butyl)-benzene sulfonamide]",6.04
14,"COc1cc(Nc2nc(C)c(Cc3ccc(Cl)cc3)s2)ccc1-n1cnc(C)c1 [Example 2, [5-(4-Chloro-benzyl)-4-methyl-thiazol-2-yl]-[3-methoxy-4-(4-methyl-imidazol-1-yl)-phenyl]-amine]",6.62
15,"COc1cc(Nc2nc([C@H](CC(C)C)NS(=O)(=O)Cc3ccccc3)cs2)ccc1-n1cnc(C)c1 [Example 40, N—((S)-1-{2-[3-Methoxy-4-(4-methyl-imidazol-1-yl)-phenylamino]-thiazol-4-yl}-3-methyl-butyl)-C-phenyl-methanesulfonamide]",6.26
16,"Cc1cn(-c2ccc(Nc3nc(C)c(Cc4cccc(Cl)c4)s3)cc2C#N)cn1 [Example 4, 5-[5-(3-Chloro-benzyl)-4-methyl-thiazol-2-ylamino]-2-(4-methyl-imidazol-1-yl)-benzonitrile]",6.12
17,"COc1cc(Nc2nc([C@H](CC(C)C)NC(=O)CC(F)(F)F)cs2)ccc1-n1cnc(C)c1 [Example 38, 3,3,3-Trifluoro-N—((S)-1-{2-[3-methoxy-4-(4-methyl-imidazol-1-yl)-phenylamino]-thiazol-4-yl}-3-methyl-butyl)-propionamide]",6.54
18,"COc1cc(Nc2nc(C)c(Cc3cccc(Cl)c3)s2)ccc1-n1cnc(C)c1 [Example 1, [5-(3-Chloro-benzyl)-4-methyl-thiazol-2-yl]-[3-methoxy-4-(4-methyl-imidazol-1-yl)-phenyl]-amine]",6.68
19,"COc1ccc(Br)cc1-c1csc(Nc2ccc(-n3cnc(C)c3)cc2)n1 [Example 21, [4-(5-Bromo-2-methoxy-phenyl)-thiazol-2-yl]-[4-(4-methyl-imidazol-1-yl)-phenyl]-amine]",6.06
20,"COc1cc(Nc2nc(C)c(Cc3ccccc3Cl)s2)ccc1-n1cnc(C)c1 [Example 7, [5-(2-Chloro-benzyl)-4-methyl-thiazol-2-yl]-[3-methoxy-4-(4-methyl-imidazol-1-yl)-phenyl]-amine]",6.28
21,"COc1cc(Nc2nc(C)c(Cc3cccc(C(F)(F)F)c3)s2)ccc1-n1cnc(C)c1 [Example 9, [3-Methoxy-4-(4-methyl-imidazol-1-yl)-phenyl]-[4-methyl-5-(3-trifluoromethyl-benzyl)-thiazol-2-yl]-amine]",6.04
22,"COc1cc(Nc2nc(C)c(Cc3ccc(C)c(Cl)c3)s2)ccc1-n1cnc(C)c1 [Example 70, [5-(3-Chloro-4-methyl-benzyl)-4-methyl-thiazol-2-yl]-[3-methoxy-4-(4-methyl-imidazol-1-yl)-phenyl]-amine]",6.15
23,"COc1cc(Nc2ncc(C(O)c3ccc(Cl)cc3)s2)ccc1-n1cnc(C)c1 (centres unmarked) [Example 76, (4-Chloro-phenyl)-{2-[3-methoxy-4-(4-methyl-imidazol-1-yl)-phenylamino]-thiazol-5-yl}-methanol]",6.47
24,"COc1cc(Nc2nc(C)c(Cc3ccc(Cl)c(Cl)c3)s2)ccc1-n1cnc(C)c1 [Example 71, [5-(3,4-Dichloro-benzyl)-4-methyl-thiazol-2-yl]-[3-methoxy-4-(4-methyl-imidazol-1-yl)-phenyl]-amine]",6.55
25,"CCOC(=O)c1sc(Nc2ccc(-n3cnc(C)c3)c(OC)c2)nc1C(F)(F)F [Example 42, 2-[3-Methoxy-4-(4-methyl-imidazol-1-yl)-phenylamino]-4-trifluoromethyl-thiazole-5-carboxylic acid ethyl ester]",6.19
26,"COc1cc(Nc2nc3c(s2)CN(C(=O)OC(C)(C)C)CC3)ccc1-n1cnc(C)c1 [Example 43, 2-[3-Methoxy-4-(4-methyl-imidazol-1-yl)-phenylamino]-6,7-dihydro-4H-thiazolo[5,4-c]pyridine-5-carboxylic acid tert-butyl ester]",6.10
27,"COc1cc(Nc2nc([C@H](CC(C)C)NC(=O)c3ccc(F)cc3)cs2)ccc1-n1cnc(C)c1 [Example 37, 4-Fluoro-N—((S)-1-{2-[3-methoxy-4-(4-methyl-imidazol-1-yl)-phenylamino]-thiazol-4-yl}-3-methyl-butyl)-benzamide]",6.39
28,"COc1cc(Nc2nc(C(C)(C)c3cc(F)c(F)c(F)c3)cs2)ccc1-n1cnc(C)c1 [Example 78, [3-Methoxy-4-(4-methyl-imidazol-1-yl)-phenyl]-{4-[1-methyl-1-(3,4,5-trifluoro-phenyl)-ethyl]-thiazol-2-yl}-amine]",6.17
29,"COc1cc(Nc2ncc(C(O)c3ccccc3)s2)ccc1-n1cnc(C)c1 (centres unmarked) [Example 62, {2-[3-Methoxy-4-(4-methyl-imidazol-1-yl)-phenylamino]-thiazol-5-yl}-phenyl-methanol]",6.24
